Assay results: paper PMC11390765 (Cancer Chemotherapy and Pharmacology, 2024)
Where “and” joins values, the source holds several entries; their conditions need not be identical. Identical values can stand only once. Marks after values point to notes of the source that are not given here.

How the values were obtained:
CYP = test system: CYP; set-up: method as in unpublished data; settings: ref unpublished data; cited from earlier work
[1] = Plasma pharmacokinetics of capivasertib and its glucuronide metabolite; assay type: in vivo, human
[2] = Safety and tolerability (adverse events, CTCAE v5.0; full analysis set); assay type: in vivo, human; settings: period 1, day 1 cycle 1, midazolam only 1 mg, N=21
Protocol: Safety and tolerability were evaluated in terms of AEs, which were classified and graded according to the National Cancer Institute (NCI) Common Terminology Criteria for Adverse Events (CTCAE) v5.0; vital signs; 12-lead electrocardiogram (ECG); and clinical laboratory assessments, including clinical chemistry and hematology parameters, urinalysis, HbA1c levels, and lipid profiles.
Efficacy analyses were also performed on the full analysis set. Summary and/or descriptive statistics were used to analyze baseline demographic, safety, and efficacy data; PFS and DoR were estimated using Kaplan–Meier methodology.

[3] = Midazolam plasma pharmacokinetics with or without capivasertib (part A); settings: for AUC(0-inf): AUCinf; for tmax: median (range); for half-life: t½λz
[4] = human, plasma, oral, geometric mean (gCV%), day 8 of cycle 1, midazolam 1 mg on 3rd day off capivasertib 400 mg BID, N = 16
[5] = human, plasma, oral, geometric mean (gCV%), day 12 of cycle 1, midazolam 1 mg on 4th day on capivasertib 400 mg BID, N = 15
[6] = human, plasma, po, 1 mg, geometric mean (gCV%), day 1 of cycle 1, midazolam alone, single oral 1 mg, N = 18

NC1(C(=O)N[C@@H](CCO[C@@H]2O[C@H](C(=O)O)[C@@H](O)[C@H](O)[C@H]2O)c2ccc(Cl)cc2)CCN(c2ncnc3[nH]ccc23)CC1 [AZ14102143]
CYP inhibition in vitro (CYP): little or no CYP inhibition
AUCτ ([1]; geometric mean (gCV%), 12-h dosing interval, day 12 of cycle 1, capivasertib 400 mg BID): 68,810 h*ng/mL
Ctrough cycle 1, day 13 ([1]; geometric mean (gCV%), 12 h post day 12 capivasertib evening dose): 2575 ng/mL and 2575^f (106.9) ng/mL
Ctrough cycle 1, day 9 ([1]; geometric mean (gCV%), after 3 off-capivasertib-dosing days): 45.22 ng/mL and 45.22^e (242.1) ng/mL
Cmax ([1]; geometric mean (gCV%), day 12 of cycle 1, 4th day on capivasertib 400 mg BID, with single oral midazolam 1 mg): 11,220 ng/mL
t½λz ([1]; geometric mean (gCV%), day 12 of cycle 1, capivasertib 400 mg BID): 3.40 h
tmax ([1]; median (range), day 12 of cycle 1, capivasertib 400 mg BID): 2.03^a (0.6–7.6) h

Cc1ncc2n1-c1ccc(Cl)cc1C(c1ccccc1F)=NC2 [midazolam, reference compound]
Abdominal pain, any grade [2]: 0 n (%)
Abdominal pain, grade ≥ 3 [2]: 0 n (%)
Anemia, any grade [2]: 0 n (%)
Anemia, grade ≥ 3 [2]: 0 n (%)
Any AE, any grade [2]: 3 (14.3) n (%)
Any AE, grade ≥ 3 [2]: 0 n (%)
Asthenia, any grade [2]: 0 n (%)
Asthenia, grade ≥ 3 [2]: 0 n (%)
Blood alkaline phosphatase increased, any grade [2]: 0 n (%)
Blood alkaline phosphatase increased, grade ≥ 3 [2]: 0 n (%)
Blood bilirubin increased, any grade [2]: 0 n (%)
Blood bilirubin increased, grade ≥ 3 [2]: 0 n (%)
Blood creatinine increased, any grade [2]: 0 n (%)
Blood creatinine increased, grade ≥ 3 [2]: 0 n (%)
COVID-19, any grade [2]: 0 n (%)
COVID-19, grade ≥ 3 [2]: 0 n (%)
Decreased appetite, any grade [2]: 0 n (%)
Decreased appetite, grade ≥ 3 [2]: 0 n (%)
Diarrhea, any grade [2]: 0 n (%)
Diarrhea, grade ≥ 3 [2]: 0 n (%)
Fatigue, any grade [2]: 0 n (%)
Fatigue, grade ≥ 3 [2]: 0 n (%)
Gamma-glutamyl transferase increased, any grade [2]: 0 n (%)
Gamma-glutamyl transferase increased, grade ≥ 3 [2]: 0 n (%)
Hyperglycemia, any grade [2]: 1 (4.8) n (%)
Hyperglycemia, grade ≥ 3 [2]: 0 n (%)
Hypoalbuminemia, any grade [2]: 0 n (%)
Hypoalbuminemia, grade ≥ 3 [2]: 0 n (%)
Hypokalemia, any grade [2]: 0 n (%)
Hypokalemia, grade ≥ 3 [2]: 0 n (%)
Hyponatremia, any grade [2]: 0 n (%)
Hyponatremia, grade ≥ 3 [2]: 0 n (%)
Hypotension, any grade [2]: 0 n (%)
Hypotension, grade ≥ 3 [2]: 0 n (%)
Large intestinal obstruction, any grade [2]: 0 n (%)
Large intestinal obstruction, grade ≥ 3 [2]: 0 n (%)
Lymphocyte count decreased, any grade [2]: 0 n (%)
Lymphocyte count decreased, grade ≥ 3 [2]: 0 n (%)
Nausea, any grade [2]: 0 n (%)
Nausea, grade ≥ 3 [2]: 0 n (%)
Rash (group term), any grade [2]: 0 n (%)
Rash (group term), grade ≥ 3 [2]: 0 n (%)
Sepsis, any grade [2]: 0 n (%)
Sepsis, grade ≥ 3 [2]: 0 n (%)
Thrombocytopenia, any grade [2]: 0 n (%)
Thrombocytopenia, grade ≥ 3 [2]: 0 n (%)
Ureteric obstruction, any grade [2]: 0 n (%)
Ureteric obstruction, grade ≥ 3 [2]: 0 n (%)
Urticaria, any grade [2]: 0 n (%)
Urticaria, grade ≥ 3 [2]: 0 n (%)
Cmax ([3]; geometric mean (gCV%), day 1 of cycle 1, midazolam alone, single oral 1 mg, N = 18): 8.55^a (39.6) ng/mL
AUClast ([3]; geometric mean (gCV%), day 8 of cycle 1, midazolam 1 mg on 3rd day off capivasertib 400 mg BID, N = 16): 24.49^b (45.3) h*ng/mL
AUC(0-inf) [3, 4]: 28.3 ng·h/mL
AUC(0-inf) [3, 5]: 39.5 ng·h/mL
Cmax ([3]; human, plasma, oral, Cmax, geometric mean (gCV%), day 8 of cycle 1, midazolam 1 mg on 3rd day off capivasertib 400 mg BID, N = 16): 9.9 ng/mL
Cmax ([3]; human, plasma, oral, Cmax, geometric mean (gCV%), day 12 of cycle 1, midazolam 1 mg on 4th day on capivasertib 400 mg BID, N = 15): 9.83 ng/mL
tmax ([3]; human, plasma, oral, day 8 of cycle 1, midazolam 1 mg on 3rd day off capivasertib 400 mg BID, N = 16): ~0.5 h
tmax ([3]; human, plasma, oral, day 12 of cycle 1, midazolam 1 mg on 4th day on capivasertib 400 mg BID, N = 15): ~0.5 h
half-life [3, 4]: 8.52 h
half-life [3, 5]: 7.23 h
AUC(0-t) ([3]; human, plasma, po, 1 mg): 22.4 ng·h/mL
AUC(0-inf) [3, 6]: 25 ng·h/mL
tmax ([3]; human, plasma, po, 1 mg, day 1 of cycle 1, midazolam alone, single oral 1 mg, N = 18): ~0.5 h
half-life [3, 6]: 7.24 h
